# From patent publication US7569572B2, “Pyrazolo[4,3-D]pyrimidines” (Pfizer Inc, priority 2004, dated 2009)
# Structures can show the parent of a compound that is named as a salt.
# Target: T1, human platelet PDE5 (Homo sapiens, UniProt O76074)
# T1 construct: utilizes PDE5 isolated from human platelets; from tissue; host or cells: human platelets
# Assay: Method A: PDE-5 Inhibition Scintillation Proximity Assay (SPA) - Human Platelet
# Format: biochemical
# Conditions: cGMP substrate 500 nM, PDE5 isolated from human platelets
# From the text: Method A: PDE-5 Inhibition Scintillation Proximity Assay (SPA)—Human Platelet
# The assay measures the inhibition of human platelet PDE5 enzyme activity by a test compound in an in vitro assay that utilizes PDE5 isolated from human platelets. The PDE5 enzyme can be isolated from platelets essentially by a modification of the method of Thompson, W J et al.; Biochemistry 18(23), 5228-5237, 1979, as described by Ballard S A et al.; J. Urology 159(6), 2164-2171, 1998. PDE5 catalyzes the hydrolysis of [^3H]cGMP to the 5′ nucleotide [^3H]GMP. [^3H]GMP binds to yttrium silicate SPA beads and is detected by scintillation counting. […] The inhibition of enzyme activity is calculated relative to total PDE5 activity of uninhibited controls.
# PDE5 IC50 Assay: 96-Well Microtiter Plate Format
# Buffer A: 20 mM Tris-HCl, 5 mM MgCl2, pH 7.4
# Buffer B: 2 mg/ml BSA in Buffer A (enzyme buffer)
# cGMP substrate: Final concentration of 500 nM in assay
# The amount of ^3H-labeled substrate added depends upon the specific activity of [^3H]cGMP, and it is diluted with a 10 mM stock of cold cGMP in Buffer A for a final substrate concentration of 500 nM in the assay.
# PDE enzyme: Prepared in Buffer B. The dilution factor is determined by enzyme activity.
# SPA beads: 20 mg/ml suspension prepared in dH2O.
# Stocks of standard and test compounds are prepared at 5 mM in 100% DMSO. Compounds are serially diluted in separate dilution plates using a 10-point ½ log dilution format. 2 μl of the compound dilutions are added in duplicate to the wells of the assay plate; 2 μl of 100% DMSO are added to designated control wells. 25 μl of Buffer A are added to all wells. 25 μl of Buffer B are added to the negative control wells, and 25 μl of enzyme are added to the remaining wells. 50 μl of substrate are added to each well. Plates are sealed and incubated for 60 minutes on a plate shaker at 30 C. 50 μl of SPA beads are added to stop the reaction. The plates are again sealed and shaken for 15 minutes to allow the beads to bind the GMP product. The beads are allowed to settle for 30 minutes and then read on a NXT TopCount. Data is analyzed with the ECADA application. In this analysis, % inhibition is calculated: (mean maximum−compound value/(mean maximum−mean minimum)×100. IC50s are determined from sigmoid dose-response curves of enzyme activity vs compound concentration.
row,SMILES,IC50 [nM]
1,CCOCCn1nc(CNC(C)=O)c2nc(NC)nc(Nc3cc(C)ccn3)c21 [Example 7],9
2,"CCOCCn1nc(CN2CCNCC2)c2nc(N(C)C)nc(Nc3cc(C)ccn3)c21 [Example 40, 1-(2-ethoxyethyl)-N^5,N^5-dimethyl-N^7-(4-methylpyridin-2-yl)-3-(piperazin-1-ylmethyl)-1H-pyrazolo[4,3-d]pyrimidine-5,7-diamine hydrochloride]",5.8
3,CCOCCn1nc(CN2CC[C@@H](OC)C2)c2nc(N(C)C)nc(Nc3cc(C)ccn3)c21 [Example 22],3.2
4,CCOCCn1nc(CN2CCCC2)c2nc(N(C)C)nc(Nc3cc(C)ccn3)c21 [Example 25],5.2
5,"CCNCc1nn(CCOCC)c2c(Nc3cc(C)ccn3)nc(N(C)C)nc12 [Example 31, 1-(2-ethoxyethyl)-3-(ethylaminomethyl)-N^5,N^5-dimethyl-N^7-(4-methylpyridin-2-yl)-1H-pyrazolo[4,3-d]pyrimidine-5,7-diamine]",3.4
6,"CCOCCn1nc(CNCCOC)c2nc(N(C)C)nc(Nc3ccncn3)c21 [Example 33, 1-(2-ethoxyethyl)-3-[(2-methoxyethylamino)methyl]-N^5,N^5-dimethyl-N^7-pyrimidin-4-yl-1H-pyrazolo[4,3-d]pyrimidine-5,7-diamine]",> 100
7,CCCNCc1nn(CCOCC)c2c(Nc3cc(C)ccn3)nc(N(C)C)nc12 [Example 24],5.8
8,"CCOCCn1nc(CN2CCOCC2)c2nc(N(C)C)nc(Nc3cc(C)ccn3)c21 [Example 30, 1-(2-ethoxyethyl)-N^5,N^5-dimethyl-3-[(4-morpholino)methyl]-N^7-(4-methylpyridin-2-yl)-1H-pyrazolo[4,3-d]pyrimidine-5,7-diamine]",1.06
9,CCOCCn1nc(CN(C)C)c2nc(N(C)C)nc(Nc3cc(C)ccn3)c21 [Example 28],6.9
10,"CCOCCn1nc(CNC)c2nc(N(C)CCO)nc(Nc3cc(C)ccn3)c21 [Example 36, 2-{[1-(2-ethoxyethyl)-3-(methylaminomethyl)-7-(4-methylpyridin-2-ylamino)-1H-pyrazolo[4,3-d]pyrimidin-5-yl]methylamino}ethanol hydrochloride]",188
11,"CCOCCn1nc(CN(CC)CC)c2nc(N(C)C)nc(Nc3ccncn3)c21 [Example 34, 3-(Diethylaminomethyl)-1-(2-ethoxyethyl)-N^5,N^5-dimethyl-N^7-(pyrimidin-4-yl)-1H-pyrazolo[4,3-d]pyrimidine-5,7-diamine]",23.6
12,"CCNCc1nn(CCOCC)c2c(Nc3ccncn3)nc(N(C)C)nc12 [Example 32, 1-(2-ethoxyethyl)-3-(ethylaminomethyl)-N^5,N^5-dimethyl-N^7-(pyrimidin-4-yl)-1H-pyrazolo[4,3-d]pyrimidine-5,7-diamine]",> 100
13,"CCOCCn1nc(CNC(=O)CN(C)C)c2nc(N(C)C)nc(Nc3cc(C)ccn3)c21 [Example 1, 2-Dimethylamino-N-[5-dimethylamino-1-(2-ethoxyethyl)-7-(4-methylpyridin-2-ylamino)-1H-pyrazolo[4,3-d]pyrimidin-3-ylmethyl]acetamide]",1.12
14,CCOCCn1nc(CNC)c2nc(N(C)C)nc(Nc3cc(C)ccn3)c21 [Example 12],4.5
15,"CCOCCn1nc(CN(C)C(C)=O)c2nc(N(C)C)nc(Nc3ccncn3)c21 [Example 16, N-[5-Dimethylamino-1-(2-ethoxyethyl)-7-(pyrimidin-4-ylamino)-1H-pyrazolo[4,3-d]pyrimidin-3-ylmethyl]-N-methylacetamide]",5.9
16,"CCOCCn1nc(CNC(=O)CO)c2nc(N(C)C)nc(Nc3cc(C)ccn3)c21 [Example 4, N-[5-dimethylamino-1-(2-ethoxyethyl)-7-(4-methylpyridin-2-ylamino)-1H-pyrazolo[4,3-d]pyrimidin-3-ylmethyl]-2-hydroxyacetamide]",0.77

row,SMILES,IC50 [nM]
1,"CCOCCn1nc(CNC(C)=O)c2nc(N(C)C)nc(Nc3cc(C)ccn3)c21 [Example 6, N-[5-dimethylamino-1-(2-ethoxyethyl)-7-(4-methylpyridin-2-ylamino)-1H-pyrazolo[4,3-d]pyrimidin-3-ylmethyl]acetamide]",0.39
2,"CCOCCn1nc(CNC)c2nc(N(C)CCOC)nc(Nc3cc(C)ccn3)c21 [Example 37, 1-(2-ethoxyethyl)-N^5-(2-methoxyethyl)-N^5-methyl-3-(methylaminomethyl)-N^7-(4-methylpyridin-2-yl)-1H-pyrazolo[4,3-d]pyrimidine-5,7-diamine hydrochloride]",4.4
3,"CCOCCn1nc(CNC)c2nc(N(C)C)nc(Nc3cnccn3)c21 [Example 17, 1-(2-ethoxyethyl)-N^5,N^5-dimethyl-3-(methylaminomethyl)-N^7-(pyrazin-2-yl)-1H-pyrazolo[4,3-d]pyrimidine-5,7-diamine hydrochloride]",> 100
4,CCOCCn1nc(CNCCOC)c2nc(N(C)C)nc(Nc3cc(C)ccn3)c21 [Example 29],3.3
5,CCNc1nc(Nc2cc(C)ccn2)c2c(n1)c(CNC(=O)CO)nn2CCOCC [Example 5],0.58
6,CCOCCn1nc(CN2CC[C@H](OC)C2)c2nc(N(C)C)nc(Nc3cc(C)ccn3)c21 [Example 21],2
7,"CCNc1nc(Nc2cc(C)ccn2)c2c(n1)c(CNC(C)=O)nn2CCOCC [Example 8, N-[1-(2-ethoxyethyl)-5-ethylamino-7-(4-methylpyridin-2-ylamino)-1H-pyrazolo[4,3-d]pyrimidin-3-ylmethyl]acetamide]",0.59
8,CCOCCn1nc(CN2CCC[C@H]2COC)c2nc(N(C)C)nc(Nc3cc(C)ccn3)c21 [Example 20],2.1
9,CCOCCn1nc(CNC(=O)CC)c2nc(NC)nc(Nc3cc(C)ccn3)c21 [Example 10],2.5
10,"CCNc1nc(Nc2cc(C)ccn2)c2c(n1)c(CNC(=O)CC)nn2CCOCC [Example 11, N-[1-(2-ethoxyethyl)-5-ethylamino-7-(4-methylpyridin-2-ylamino)-1H-pyrazolo[4,3-d]pyrimidin-3-ylmethyl]propionamide]",0.53
11,"CCOCCn1nc(CNC(=O)CC)c2nc(N(C)C)nc(Nc3cc(C)ccn3)c21 [Example 9, N-[5-dimethylamino-1-(2-ethoxyethyl)-7-(4-methylpyridin-2-ylamino)-1H-pyrazolo[4,3-d]pyrimidin-3-ylmethyl]propionamide]",0.33
12,"CCOCCn1nc(CN2CCN(C)CC2)c2nc(N(C)C)nc(Nc3cc(C)ccn3)c21 [Example 18, 1-(2-Ethoxyethyl)-N^5,N^5-dimethyl-3-[(4-methylpiperazin-1-yl)methyl]-N^7-(4-methylpyridin-2-yl)-1H-pyrazolo[4,3-d]pyrimidine-5,7-diamine hydrochloride]",2.3
13,CCOCCn1nc(CN(C)C(C)=O)c2nc(N(C)C)nc(Nc3cc(C)ccn3)c21 [Example 13],0.4
14,"CCOCCn1nc(CNC)c2nc(N(C)C)nc(Nc3ccncn3)c21 [Example 35, 1-(2-ethoxyethyl)-N^5,N^5-dimethyl-3-(methylaminomethyl)-N^7-pyrimidin-4-yl-1H-pyrazolo[4,3-d]pyrimidine-5,7-diamine hydrochloride]",> 100
15,CCOCCn1nc(CN2CCC[C@@H]2COC)c2nc(N(C)C)nc(Nc3cc(C)ccn3)c21 [Example 19],4.3
16,"CCNc1nc(Nc2cc(C)ccn2)c2c(n1)c(CN(C)C(C)=O)nn2CCOCC [Example 15, N-[1-(2-ethoxyethyl)-5-ethylamino-7-(4-methylpyridin-2-ylamino)-1H-pyrazolo[4,3-d]pyrimidin-3-ylmethyl]-N-methylacetamide]",0.48
